{
  "source": "patent US6500456B1",
  "about": "(priority 1997, dated 2002)",
  "origin": "cited, not measured here",
  "details": "at 20° C., pure nitroglycerin",
  "data": [
    {"compound": "O=[N+]([O-])OCC(CO[N+](=O)[O-])O[N+](=O)[O-]", "note": "[nitroglycerin]", "values": [
      {"measurement": "Vapor pressure", "result": "about 0.00026 mm"}
    ]}
  ]
}
